Values joined by “and” are separate entries in the source; they are usually repeats but may differ in a detail not shown here. Equal entries are not always repeated. Where two headings read alike, the source gives them in different places. Starred links: 1 amine or outer side, 2 acyl side, 3 side chain; linkers in the order of their positions; H or OH if unused. Non-standard residues stand in square brackets, D forms with d. Residues, ends and D or L forms follow the SMILES beside them. *: point of attachment. NH(4-phenylbutyl) = c1ccc(CCCCN*)cc1; X1 = C[C@H](N[*:1])C(=O)C(=O)[*:2]; NHPhenethyl = c1ccc(CCN*)cc1
How the values were obtained:
rhomboid protease GlpG = target: T1, rhomboid protease GlpG (Escherichia coli, UniProt P09391); experiment: progress-curve analysis of slow-binding inhibition of GlpG (Ki, kon, koff, modality); type: biochemical; details: for koff: Table 1; for Ki: true inhibitory constant, equals Kiapp (non-competitive)
T1 construct: made in house; host or cells: E. coli C41(DE3)
T1 sequence (P09391 whole entry): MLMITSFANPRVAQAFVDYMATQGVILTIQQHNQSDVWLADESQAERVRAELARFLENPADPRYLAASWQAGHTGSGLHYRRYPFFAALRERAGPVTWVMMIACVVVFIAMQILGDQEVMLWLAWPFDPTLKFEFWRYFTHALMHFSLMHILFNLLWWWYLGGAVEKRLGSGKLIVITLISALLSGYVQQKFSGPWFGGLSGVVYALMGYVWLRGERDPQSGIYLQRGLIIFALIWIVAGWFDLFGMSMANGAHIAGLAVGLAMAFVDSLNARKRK
Procedure: Figure 4 Mechanism of Inhibition of Rhomboid Protease GlpG by Peptidyl Ketoamides Analyzed Using Fluorogenic Transmembrane Peptide Substrates (A) Progress curves in the presence of increasing concentrations of compound 10 show biphasic character, which is typical for slow-binding inhibitors ([Copeland, 2013a], [Morrison, 1982]). GlpG (0.5 nM) was incubated with 25 μM substrate KSp93 in the presence of 0.05% (w/v) DDM and 0–1,333 nM 10. Fluorescence at 493 nm was followed to monitor substrate cleavage. (B) Biphasic progress curves characterized by an initial reaction rate (vi) and steady state reaction rate (vs). The progress curve at 1,333 nM compound 10 from the experiment in (A) is shown in detail, and both reaction rates obtained from non-linear regression into Equation (1) are shown as dotted lines. (C) Reversibility of inhibition by ketoamides was assessed by the rapid dilution method ([Harper et al., 1985], [Harper and Powers, 1985]). […] This solution was then rapidly diluted 100-fold either into the reaction buffer containing 10 μM substrate KSp64 ([Ticha et al., 2017]) (yielding final 10 nM inhibitor) or into the reaction buffer with 10 μM substrate KSp64 and 1,000 nM 10. For comparison, we used β-lactam L29 ([Pierrat et al., 2011]) at 1 μM and isocoumarin JLK6 ([Vinothkumar et al., 2010]) at 10 μM as known reversible and irreversible inhibitors of rhomboid proteases, respectively. Activity recovery was followed by measuring fluorescence over the course of 120 min with excitation at 553 nm and emission at 583 nm. (D) Progress curves of KSp93 cleavage at increasing concentrations of 10 measured under (A) were analyzed by non-linear regression as described for slow-binding inhibition ([Copeland, 2013a], [Morrison, 1982]) using GraphPad Prism version 7.02 for Windows (GraphPad Software, La Jolla, California, USA) to yield the rate constant for the onset of inhibition, kobs. […] Michaelis curves at the indicated inhibitor concentrations were measured by plotting vS (measured as in Figure 4B) against substrate concentration using 1 nM GlpG, 0.15% (w/v) DDM and highly sensitive substrate KSp96. […] The apparent inhibitory constants Kiapp (blue-red striped columns) and the constituent rate constants kon (red columns) and koff (blue columns) were determined from progress curve analysis as shown in (A and C) (note that Kiapp = koff/kon). […] TEXT PRINTED IN THE PICTURE: (D) compound 10: Ki^app = (123±47) nM; kon = (3.4±0.2)·10^-5 (nM^-1·min^-1); koff = (4.2±1.4)·10^-3 (min^-1) DOUBTS OF THE COPYIST ABOUT THIS PICTURE: compound 10, kon: the exponent is in very small print, read as -5 but could be -6 or -8 / compound 10, koff: the exponent is in very small print, read as -3 but could be -5 […]

endogenous GlpG = target: T2, endogenous GlpG (Escherichia coli, UniProt P09391); experiment: inhibition of endogenous GlpG in live E. coli (LacYTM2 substrate cleavage, western blot); type: cell-based; details: live E. coli NR698, substrate MBP-FLAG-LacYTM2-Trx; read-out: IC50 In Vivo (GlpG)
T2 construct: E. coli expressing endogenous levels of GlpG; endogenous in cells; host or cells: E. coli K12 NR698 (permeabilised outer membrane)
T2 sequence (P09391 whole entry): as above
Procedure: The substrate MBP-FLAG-LacYTM2-Trx ([Strisovsky et al., 2009]) was expressed in wild-type E. coli NR698 with genetically permeabilized outer membrane ([Ruiz et al., 2005]) in the presence of increasing concentrations of inhibitors as described in STAR Methods. Substrate cleavage was measured in cell lysates by immunoblotting for FLAG and quantified using near-infrared fluorescence. The reported in vivo IC50 values are best-fit means with SD representative of 2–3 measurements. DMSO, dimethylsulfoxide vehicle control; KO, E. coli glpG::tet. […] The substrate AmyESP-MBP-FLAG-LacYTM2-Trx-HA was expressed in Bacillus subtilis 168 (ydcA::neo, xdkE::AmyESP-MBP-LacYTM2-Trx(erm, lin)) (BS87) in the presence of increasing concentrations of inhibitors as described in STAR Methods. Substrate cleavage was detected in cell lysates by immunoblotting for FLAG and detection by near-infrared fluorescence. […] This treatment was necessary because the specific cleavage product could not be resolved sufficiently well from the non-specific bands to be integrated separately. DMSO, dimethylsulfoxide vehicle control; YqgP KO, Bacillus subtilis 168 (ydcA::neo, yqgP::tet, xdkE::AmyESP-MBP-LacYTM2-Trx(erm, lin)) (BS88).

Row | Structure (SMILES) | koff (rhomboid protease GlpG) [s⁻¹] | Ki (rhomboid protease GlpG; read-out: Ki) | IC50 (endogenous GlpG) [nM] | Ki (rhomboid protease GlpG; Ki) [nM]
1 | CC(=O)N[C@@H](CCCNC(=N)N)C(=O)N[C@H](C(=O)N[C@@H](CCCNC(=N)N)C(=O)N[C@@H](Cc1c[nH]cn1)C(=O)N[C@@H](C)C(=O)C(=O)NCCc1ccccc1)C(C)C [compound 9, Ac-RVRHA-CONH-phenylethyl] (Ac-RVRH[X1]-NHPhenethyl) | 0.0002 | 219 nM and 220 nM | 8.8 ± 0.4 | –
2 | CC(=O)N[C@@H](CCCNC(=N)N)C(=O)N[C@H](C(=O)N[C@@H](CCCNC(=N)N)C(=O)N[C@@H](Cc1c[nH]cn1)C(=O)N[C@@H](C)C(=O)C(=O)NCCCCc1ccccc1)C(C)C [compound 11, Ac-RVRHA-CONH-phenylbutyl] (Ac-RVRH[X1]-{NH(4-phenylbutyl)}) | 6.5e-05 | – | 2.7 ± 0.1 | 45 ± 8
